Laboratory results as given in patent US20160109459A1, “Compositions And Methods For Heparan Sulfate As A Biomarker For Transplant Rejection” (Duke University, priority 2012, published 2016).

Test system: purified T cells from C57BL/6 mice stimulated with bone marrow-derived BALB/c DCs
Assay: Allogeneic T cell proliferation assay (3H-thymidine incorporation, IFN-γ ELISA)
Assay type: cell-based, mouse
Method: Cells were co-cultured either alone (media) or in the presence of LPS (100 ng/mL), Pam3CSK4 (2 μg/mL), hyaluronan (HA) (100 μg/mL), sonicated-HA (sHA) (100 μg/mL), fibronectin (FN) (100 μg/mL), fibrinogen (Fbn) (100 μg/mL), heparan sulfate (HS) (100 μg/mL), HSP70 (5 μg/mL), HMGB1 (1 μg/mL), C12-iE-DAP (1 μg/mL), or L18-MDP (1 μg/mL) for 72 hours, and then pulsed ^3H-thymidine for 16 hours. Proliferation was determined by ^3H incorporation and results are expressed as cpm±SEM. Baseline alloreactivity is indicated by the dotted line; *p<0.05 compared with media alone. […] Results are representative of three independent experiments.
T cell proliferation assay: DCs were generated from bone marrow as previously described. (Yang, Y. (2004) Nat. Immunol. 5:508-15). CD3^+ T cells were isolated from B6 mice using a CD3 negative selection magnetic bead kit (Invitrogen, Carlsbad, United States). Proliferation assays were performed as previously described. (Brennan, T. V. et al. (2008) Transplantation 85:247-55).
Purified T cells from C57BL/6 mice were stimulated with bone marrow-derived DCs from BALB/c mice and their proliferation was measured by the incorporation of ^3H-thymidine. DAMPs tested included proteins—fibronectin (FN), fibrinogen (Fbn), heat shock protein 70 (HSP70), and high-mobility group protein B1 (HMGB1); and glucosaminoglycans—heparan sulfate (HS) and hyaluronan (HA). For comparison, two well-described PAMPs, lipopolysaccharide (LPS) and a synthetic tripalmitoylated lipopeptide (Pam3CSK4) that are ligands of the TLR4 homodimer and the TLR1/2 heterodimer, respectively, were tested. As nucleotide-binding domain, leucine-rich repeat containing receptors (NLRB) are another family of innate immune receptors, ligands of NLR1 (C12-iE-DAP) and NLR2 (L18-MDP) were further tested.
Next, to investigate whether HS enhanced proliferation of allogeneic T cells was due to the stimulation of TLRs on DCs or T cells, because MyD88 is a common adaptor protein involved in the signal transduction of all TLRs with the exception of TLR3^9, HS was tested against DCs or T cells that were deficient for MyD88. For this purpose, T cells from WT or MyD88^−/− C57BL/6 mice were stimulated with DCs from WT or MyD88^−/− BALB/c mice in an allogeneic proliferation assay in the presence of HS, LPS, Pam3CSK4, or media alone.
HS has been shown as a TLR4 ligand, (Johnson, G. B. et al., (2002) J. Immunol. 168:5233-39; Johnson, G. B., Brunn, G. J. & Platt, J. L. (2004) J. Immunol. 172:20-24). To determine whether the absence of TLR4 expression on stimulating DCs would reduce HS-induced alloreactive T cell proliferation equivalent to MyD88 deficiency, purified T cells from C57BL/6 mice were co-cultured with irradiated WT, TLR4^−/−, and MyD88^−/− BALB/c DCs and proliferation was measured by the incorporation of ^3H-thymidine.
Cytokine analysis: Cell culture supernatants were obtained from DC cultures or T cell proliferation assays and assayed for IL-6, IL-12 and IFN-γ by ELISA (BD Biosciences) according to the manufacturer's standard protocols. HEK 293 supernatants were tested for human IL-8 by ELISA (BioLegend, San Diego, United States).
Allogenic heart transplants were performed between C57BL/6 donors and (BALB/c x DBA.1)F1 recipients. Serum HS was measured by ELISA Immunohistologic staining for HS and CD3 was performed on heart tx tissue. Bone marrow derived dendritic cells (DCs) and purified T cells from WT-, MyD88- or TLR4-deficient mice were used in MLR assays to test for proliferation and cytokine production in response to HS. CD40 and CD80 expression on stimulated DCs was measured by FACS. T cell proliferation was determined by ^3H-thymidine incorporation and CFSE dye dilution assay. HEK293 NF-kB-luciferase reporter cell lines stably expressing CD14, MD2, and TLR4 or TLR2 were used in assays of HS activity.

[1] = TLR4−/− BALB/c DCs as stimulators

heparan sulfate [HS]
IFNg production in MLR assays: increased | alloreactive T cell proliferation with MyD88−/− DCs as stimulators (MyD88−/− BALB/c DCs): abolished the enhanced proliferation | IFN-γ production with TLR4−/− DCs [1]: not able to increase | proliferation of allogeneic T cells above baseline with TLR4−/− DCs [1]: not able to increase | alloreactive T cell proliferation compared to media alone (WT BALB/c DCs + C57BL/6 T cells, 72 h then 3H-thymidine 16 h, HS 100 μg/mL, HSP70 5 μg/mL, C12-iE-DAP 1 μg/mL, L18-MDP 1 μg/mL): significantly increased
